The NIST ThermoML archive (doi:10.1021/je400512u)
Numbers after ± are expanded uncertainties.

Legend:
[1] = 101 kPa, Liquid; for viscosity: Concentric cylinders viscometry; for speed of sound: Pulse-echo method; for mass density: Vibrating tube method
[2] = xn = mol fraction of the nth substance listed; conditions: 101 kPa, Liquid, x2 = 0; for viscosity: Concentric cylinders viscometry; for speed of sound: Pulse-echo method; for mass density: Vibrating tube method

SMILES	viscosity ([1]; 298.15 K)	speed of sound ([1]; 298.15 K)	mass density ([1]; 298.15 K)	viscosity ([1]; 303.15 K)	speed of sound ([1]; 303.15 K)	mass density ([1]; 303.15 K)	viscosity ([1]; 308.15 K)	speed of sound ([1]; 308.15 K)	mass density ([1]; 308.15 K)	viscosity ([1]; 313.15 K)	speed of sound ([1]; 313.15 K)	mass density ([1]; 313.15 K)	viscosity ([1]; 318.15 K)	speed of sound ([1]; 318.15 K)	mass density ([1]; 318.15 K)	viscosity ([1]; 323.15 K)	speed of sound ([1]; 323.15 K)	mass density ([1]; 323.15 K)	further results
C1COCCO1 [1,4-dioxane]	1.212 ± 0.042 mPa·s	1345.1 ± 1.2 m/s	1027.99 ± 0.25 kg/m3	1.115 ± 0.039 mPa·s	1323.1 ± 1.2 m/s	1022.33 ± 0.25 kg/m3	1.028 ± 0.036 mPa·s	1301.3 ± 1.2 m/s	1016.66 ± 0.24 kg/m3	0.952 ± 0.033 mPa·s	1279.7 ± 1.2 m/s	1010.98 ± 0.24 kg/m3	0.883 ± 0.031 mPa·s	1258.2 ± 1.2 m/s	1005.28 ± 0.23 kg/m3	0.822 ± 0.029 mPa·s	1237.4 ± 1.2 m/s	999.58 ± 0.23 kg/m3	
C1COCCO1 [1,4-dioxane] + CCCCCCCO																			viscosity ([2]; 298.15 K): 1.212 ± 0.042 mPa·s; speed of sound ([2]; 298.15 K): 1345.1 ± 1.2 m/s; mass density ([2]; 298.15 K): 1027.99 ± 0.25 kg/m3; viscosity ([2]; 303.15 K): 1.115 ± 0.039 mPa·s; speed of sound ([2]; 303.15 K): 1323.1 ± 1.2 m/s; mass density ([2]; 303.15 K): 1022.33 ± 0.25 kg/m3; viscosity ([2]; 308.15 K): 1.028 ± 0.036 mPa·s; speed of sound ([2]; 308.15 K): 1301.3 ± 1.2 m/s; mass density ([2]; 308.15 K): 1016.66 ± 0.24 kg/m3; viscosity ([2]; 313.15 K): 0.952 ± 0.033 mPa·s; speed of sound ([2]; 313.15 K): 1279.7 ± 1.2 m/s; mass density ([2]; 313.15 K): 1010.98 ± 0.24 kg/m3; viscosity ([2]; 318.15 K): 0.883 ± 0.031 mPa·s; speed of sound ([2]; 318.15 K): 1258.2 ± 1.2 m/s; mass density ([2]; 318.15 K): 1005.28 ± 0.23 kg/m3; viscosity ([2]; 323.15 K): 0.822 ± 0.029 mPa·s; speed of sound ([2]; 323.15 K): 1237.4 ± 1.2 m/s; mass density ([2]; 323.15 K): 999.58 ± 0.23 kg/m3
CCCCCCCO [heptan-1-ol]	5.869 ± 0.2 mPa·s	1328.3 ± 1.2 m/s	819.73 ± 0.23 kg/m3	4.989 ± 0.17 mPa·s	1311.3 ± 1.2 m/s	816.183 ± 0.23 kg/m3	4.27 ± 0.15 mPa·s	1294.5 ± 1.2 m/s	812.61 ± 0.23 kg/m3	3.677 ± 0.13 mPa·s	1277.7 ± 1.2 m/s	809.011 ± 0.23 kg/m3	3.186 ± 0.11 mPa·s	1261.1 ± 1.2 m/s	805.383 ± 0.24 kg/m3	2.777 ± 0.096 mPa·s	1245.1 ± 1.2 m/s	801.731 ± 0.24 kg/m3	
